Test results published in patent US20130345163A1, “BIOLOGICAL MARKER FOR INFLAMMATION” (CAN-FITE BIOPHARMA LTD., priority 2004, published 2013).

What was measured:
[1] = system: Adjuvant Induced Arthritis (AIA) rats; assay: Adjuvant induced arthritis (AIA) model in rats, clinical disease activity score; assay type: in vivo, rat; conditions: CF101 10 μg/kg orally twice daily from day 14 after immunization, MTX 1.5 mg/kg intraperitoneally every 3 days from day 14, vs vehicle
Procedure: (§1) Female Lewis rats, aged 8-12 weeks were obtained from Harlan Laboratories (Jerusalem, Israel). Rats were maintained on a standardized pelleted diet and supplied with tap water. Experiments were performed in accordance with the guidelines established by the Institutional Animal Care and Use Committee at Can-Fite BioPharma, Petah Tikva, Israel. The rats were injected subcutaneously (SC) at the tail base with 100 μl of suspension composed of incomplete Freund's adjuvant (IFA) with 10 mg/ml heat killed Mycobacterium tuberculosis, (Mt) H37Ra, (Difco, Detroit, USA). Each group contained 10 animals.
(§2) Treatment with IB-MECA (10 μg/kg) was initiated on day 14 after vaccination and was orally administered by gavage, twice daily. Another group was treated with Methotrexate (MTX) (1.5 mg/kg) intraperitoneally every 3 days, starting on day 14th after vaccination. The control group in each experiment received vehicle only (DMSO in a dilution corresponding to that of the drugs).
Clinical Disease Activity Score was assessed as follows: the animals were inspected every second day for clinical arthritis. […] The clinical score was calculated by adding the four individual legs' score. The inflammatory intensity was also determined in accordance with the increase in the rat hind paw's diameter, measured by caliper (Mitotoyo, Tokyo, Japan).

A3AR [2] = assay: A3AR protein expression level by Western blot in tissues of AIA rats; assay type: in vivo, rat
Procedure: as §1, §2
The hind paws were dissected above the ankle joint. The bony tissue was broken into pieces, snap frozen in liquid nitrogen and stored at −80° C. until use. To prepare a protein extract, RIPA buffer (containing 150 mM NaCl, 50 mM Tris, 1% NP40, 0.5% Deoxycholate and 0.1% SDS) was added to the paw tissue (4 ml/gr of tissue). The mixture was homogenized on ice with a polytron and centrifuged.
Synovial tissue was removed and synovial cells were separated by incubating the tissue in RPMI containing 1 mg/ml Collagenase IV and 0.1 mg/ml DNase with a vigorous shaking (200 rpm) at 37° C. for 30 min. The supernatant containing the synovial cells was collected and the undigested tissue was re-extracted. The supernatants from both extractions were combined and cells were washed with PBS. Protein extracts were prepared. […]
Western blot analysis (WB) of synovial, paw, spleen and lymph nodes were carried out according to the following protocol. […] Protein concentrations were determined using the Bio-Rad protein assay dye reagent. […] Bands were recorded using BCIP/NBT color development kit (Promega, Madison, Wis., USA).

A3AR [3] = assay: A3AR level in peripheral blood mononuclear cells of RA patients by Western blot; assay type: in vivo, human
Procedure: Protein concentrations were determined using the Bio-Rad protein assay dye reagent. Equal amounts of the sample (50 μg) were separated by SDS-PAGE, using 12% polyacrylamide gels. […] Bands were recorded using BCIP/NBT color development kit (Promega, Madison, Wis., USA).

RA patients = assay: Clinical study of CF101 in RA patients, ACR response; assay type: in vivo, human
Procedure: Blood was withdrawn from RA patients who were enrolled in a clinical study sponsored by Can-Fite BioPharma, in which the effect of CF101, a clinical grade IB-MECA, on arthritic patients was evaluated. The patients randomly received 0.1, 1.0 or 4.0 mg of CF101 twice daily. Blood was withdrawn at 2 time points: (a) after a washout period of 4-6 weeks from a previous treatment and before CF101 treatment was initiated—this was considered as baseline level; (b) after 3 months of treatment with CF101. Peripheral blood mononuclear cells were separated and protein was extracted as described above. In addition, C reactive protein (CRP) values, the number of tender and swollen joints, the physicians global assessment, the patient own assessment, the pain score and the disability score were recorded and the ACR score was calculated for each patient (ACR is a score that is calculated according to criteria established by the American College of Rheumatology, based on the aforementioned measures, to evaluate the effectiveness of drugs for treatment of RA; ACR 20, ACR 50 and ACR 70 respectively represent a 20%, 50% and 70% improvement in this score).

[4] = out of 17 RA patients, 3 months of CF101

Row | SMILES | disease severity evaluated by the arthritis clinical score [1] | A3AR expression profile in lymph nodes (LN) (A3AR [2]; AIA rats treated with MTX, compared with pattern seen with IB-MECA) | level of the A3AR in PBMNCs (A3AR [3]; 4 RA patients, prior to vs after onset of treatment with methotrexate) | A3AR expression level in peripheral hematopoietic tissues (spleen and lymph node) (A3AR [2]; AIA rats treated with IB-MECA, low in naïve animals, high in AIA) | A3AR protein expression level in inflammatory tissues (paw & synovial) (A3AR [2]; AIA rats, upon IB-MECA treatment vs untreated AIA) | responders with ACR 20 only response (RA patients; [4]) [patients] | responders with ACR 50 response (RA patients; [4]) [patients] | responders with ACR 70 response (RA patients; [4]) [patients] | non-responders (not even an ACR 20 response) (RA patients; out of 17 RA patients, 3 months of CF101 0.1, 1.0 or 4.0 mg twice daily) [patients] | other parameters, particularly number of swollen and tender joints, in patient no. 1517 (RA patients; single RA patient with no ACR response (CRP change below 0%), 3 months of CF101) | A3AR level in PBMNC of non-responders (A3AR [3]; after 3 months CF101 treatment vs baseline) | A3AR level in PBMNC of ACR 50 and ACR 70 responders (A3AR [3]; after 3 months CF101 treatment vs baseline (initial high level))
1 | CN(Cc1cnc2nc(N)nc(N)c2n1)c1ccc(C(=O)N[C@@H](CCC(=O)O)C(=O)O)cc1 [methotrexate, reference compound] | significant decrease | a similar A3AR expression profile was observed | increase |  |  |  |  |  |  |  |  | 
2 | CNC(=O)[C@H]1O[C@@H](n2cnc3c(NCc4cccc(I)c4)ncnc32)[C@H](O)[C@@H]1O [CF101, N^6-(3-iodobenzyl)-adenosine-5′-N-methyluronamide] | significant decrease |  |  | low expression | down-regulated | 4 | 5 | 3 | 5 | very significant improvement | essentially no change | reduced
